Source: ChEMBL document CHEMBL1909046, “DrugMatrix in vitro pharmacology data”

Tests used:
[1] = biological target: T1, Type-2 angiotensin II receptor (Homo sapiens, UniProt P50052); format: cell-based; conditions: cho-k1; note: in other assays of this panel Not Active means under 50% inhibition at 10 µM
T1 sequence (P50052 whole entry): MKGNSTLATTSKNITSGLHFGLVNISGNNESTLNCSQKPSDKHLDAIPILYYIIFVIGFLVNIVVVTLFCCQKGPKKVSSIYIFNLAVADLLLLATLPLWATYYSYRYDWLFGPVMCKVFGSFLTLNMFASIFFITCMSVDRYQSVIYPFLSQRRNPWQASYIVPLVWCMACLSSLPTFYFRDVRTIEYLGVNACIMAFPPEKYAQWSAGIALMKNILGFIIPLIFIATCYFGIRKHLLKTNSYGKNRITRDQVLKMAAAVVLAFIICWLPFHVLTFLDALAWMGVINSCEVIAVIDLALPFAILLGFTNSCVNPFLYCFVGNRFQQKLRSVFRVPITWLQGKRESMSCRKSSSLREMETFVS

[2] = DRUGMATRIX: ATPase, Na+/K+ enzyme inhibition (substrate: ATP); format: tissue-based, Sus scrofa, Heart; conditions: Not Active = under 50% inhibition at 10 µM
[3] = biological target: T2, Substance-K receptor (Homo sapiens, UniProt P21452); format: cell membranes, CHO, Membrane; conditions: cho; note: in other assays of this panel Not Active means under 50% inhibition at 10 µM
T2 sequence (P21452 whole entry): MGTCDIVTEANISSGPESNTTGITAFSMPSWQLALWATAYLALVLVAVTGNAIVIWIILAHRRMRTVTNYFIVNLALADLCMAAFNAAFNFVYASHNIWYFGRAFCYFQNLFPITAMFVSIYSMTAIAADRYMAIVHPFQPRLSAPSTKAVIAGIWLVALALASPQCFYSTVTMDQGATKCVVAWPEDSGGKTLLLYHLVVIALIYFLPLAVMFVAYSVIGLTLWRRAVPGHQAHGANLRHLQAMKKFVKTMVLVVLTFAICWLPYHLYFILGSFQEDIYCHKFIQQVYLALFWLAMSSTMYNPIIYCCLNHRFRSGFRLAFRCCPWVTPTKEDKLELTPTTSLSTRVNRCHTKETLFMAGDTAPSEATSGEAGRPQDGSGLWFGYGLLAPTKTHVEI

[4] = biological target: T3, D(4) dopamine receptor (Homo sapiens, UniProt P21917); test: DRUGMATRIX: Dopamine D4.2 radioligand binding (ligand: [3H] Spiperone); format: cell membranes, CHO-K1, Membrane; conditions: cho-k1; Not Active = under 50% inhibition at 10 µM
T3 sequence (P21917 whole entry): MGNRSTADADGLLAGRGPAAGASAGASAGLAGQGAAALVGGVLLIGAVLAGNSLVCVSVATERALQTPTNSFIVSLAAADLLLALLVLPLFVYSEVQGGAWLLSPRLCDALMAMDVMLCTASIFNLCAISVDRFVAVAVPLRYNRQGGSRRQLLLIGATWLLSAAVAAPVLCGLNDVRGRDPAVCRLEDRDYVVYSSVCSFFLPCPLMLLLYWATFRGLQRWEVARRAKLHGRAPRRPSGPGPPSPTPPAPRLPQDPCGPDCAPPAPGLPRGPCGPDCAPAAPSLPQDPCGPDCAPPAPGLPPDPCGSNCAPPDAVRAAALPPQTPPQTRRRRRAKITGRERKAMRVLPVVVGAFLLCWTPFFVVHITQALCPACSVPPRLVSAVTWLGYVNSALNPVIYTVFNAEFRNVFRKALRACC

[5] = biological target: T4, 3-hydroxy-3-methylglutaryl-coenzyme A reductase (Homo sapiens, UniProt P04035); design: species or system Escherichia coli;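 note: enzyme inhibition assay of HMG-CoA reductase using radiolabeled [14C]HMG-CoA as substrate; in other assays of this panel Not Active means under 50% inhibition at 10 µM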
T4 sequence (P04035 whole entry): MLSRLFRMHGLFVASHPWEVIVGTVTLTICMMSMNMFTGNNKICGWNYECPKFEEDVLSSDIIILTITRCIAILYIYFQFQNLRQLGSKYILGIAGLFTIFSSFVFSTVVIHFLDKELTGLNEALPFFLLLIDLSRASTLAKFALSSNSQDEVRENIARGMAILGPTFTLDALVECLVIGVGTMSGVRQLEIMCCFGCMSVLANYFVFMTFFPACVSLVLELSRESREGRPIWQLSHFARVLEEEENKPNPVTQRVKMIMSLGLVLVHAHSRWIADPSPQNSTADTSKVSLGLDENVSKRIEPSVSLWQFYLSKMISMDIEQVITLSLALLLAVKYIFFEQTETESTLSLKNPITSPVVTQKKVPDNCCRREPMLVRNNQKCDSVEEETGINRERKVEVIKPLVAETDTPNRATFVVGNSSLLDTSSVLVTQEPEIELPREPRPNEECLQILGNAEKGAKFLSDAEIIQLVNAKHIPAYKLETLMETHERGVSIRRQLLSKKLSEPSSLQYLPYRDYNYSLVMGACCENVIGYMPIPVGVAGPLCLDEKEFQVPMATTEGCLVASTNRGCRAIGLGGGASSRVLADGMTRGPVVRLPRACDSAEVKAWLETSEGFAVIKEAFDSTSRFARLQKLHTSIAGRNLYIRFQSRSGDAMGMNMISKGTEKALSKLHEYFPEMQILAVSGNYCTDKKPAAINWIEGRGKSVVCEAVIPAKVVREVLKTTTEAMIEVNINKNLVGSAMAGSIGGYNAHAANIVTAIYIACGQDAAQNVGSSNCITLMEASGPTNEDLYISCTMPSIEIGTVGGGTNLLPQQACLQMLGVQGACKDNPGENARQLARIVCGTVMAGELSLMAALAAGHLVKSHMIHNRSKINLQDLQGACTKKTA

[6] = biological target: Mu-type opioid receptor (Homo sapiens, UniProt P35372); test: DRUGMATRIX: Opiate mu (OP3, MOP) radioligand binding (ligand: [3H] Diprenorphine); format: cell membranes, CHO-K1, Membrane; conditions: cho-k1; Not Active = under 50% inhibition at 10 µM
[7] = DRUGMATRIX: Phosphodiesterase PDE3 enzyme inhibition (substrate: [3H]cAMP + cAMP); format: tissue-based, Homo sapiens; conditions: platelet; Not Active = under 50% inhibition at 10 µM
[8] = biological target: Cytochrome P450 2C19 (Homo sapiens, UniProt P33261); conditions: bti-tn-5b1-4; note: in other assays of this panel Not Active means under 50% inhibition at 10 µM
Cytochrome P450 2C19, sequence (P33261 whole entry): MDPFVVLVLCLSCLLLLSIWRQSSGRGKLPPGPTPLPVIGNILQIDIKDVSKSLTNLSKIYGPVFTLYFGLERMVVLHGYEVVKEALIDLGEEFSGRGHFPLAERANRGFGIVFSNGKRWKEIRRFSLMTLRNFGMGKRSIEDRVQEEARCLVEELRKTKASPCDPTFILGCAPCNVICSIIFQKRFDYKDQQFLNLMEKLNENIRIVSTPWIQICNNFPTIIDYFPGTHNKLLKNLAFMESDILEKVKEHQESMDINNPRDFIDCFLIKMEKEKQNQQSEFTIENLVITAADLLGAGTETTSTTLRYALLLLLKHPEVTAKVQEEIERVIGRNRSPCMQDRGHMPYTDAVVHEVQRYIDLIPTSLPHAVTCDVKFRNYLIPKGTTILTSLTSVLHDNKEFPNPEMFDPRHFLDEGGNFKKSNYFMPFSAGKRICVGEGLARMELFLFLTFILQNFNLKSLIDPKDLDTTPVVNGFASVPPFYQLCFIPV

Mu-type opioid receptor, sequence (P35372 whole entry): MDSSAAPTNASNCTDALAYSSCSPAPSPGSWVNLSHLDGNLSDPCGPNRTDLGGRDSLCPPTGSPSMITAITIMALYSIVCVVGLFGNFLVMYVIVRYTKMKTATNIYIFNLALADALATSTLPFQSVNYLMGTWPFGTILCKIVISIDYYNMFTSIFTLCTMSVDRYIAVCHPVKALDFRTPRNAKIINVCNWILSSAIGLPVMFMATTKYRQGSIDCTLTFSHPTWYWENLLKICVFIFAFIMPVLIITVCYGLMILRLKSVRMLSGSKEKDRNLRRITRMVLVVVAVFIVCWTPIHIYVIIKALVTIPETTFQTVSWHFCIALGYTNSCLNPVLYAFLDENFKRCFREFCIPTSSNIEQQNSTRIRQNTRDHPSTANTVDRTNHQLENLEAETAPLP

| SMILES | IC50 [1] | IC50 [2] | Ki [2] | IC50 [3] | IC50 [4] | IC50 [5] | IC50 [6] | IC50 [7] | Ki [7] | IC50 [8] | Ki [8] | IC50 ([2]; read-out: IC50) [µM] |
| --- | --- | --- | --- | --- | --- | --- | --- | --- | --- | --- | --- | --- |
| COC1=CC(=O)C[C@@H](C)[C@]12Oc1c(Cl)c(OC)cc(OC)c1C2=O [GRISEOFULVIN] | Not Active | Not Active | Not Active | Not Active | Not Active | Not Active | Not Active | Not Active | Not Active | Not Active | Not Active |  |
| O=C1CN=C(c2ccccc2)c2cc([N+](=O)[O-])ccc2N1 [NITRAZEPAM] | Not Active | Not Active | Not Active | Not Active | Not Active | Not Active | Not Active | Not Active | Not Active | Not Active | Not Active |  |
| CCc1cccc2c3c([nH]c12)C(CC)(CC(=O)O)OCC3 (stereo not drawn) [ETODOLAC] | Not Active | Not Active | Not Active | Not Active | Not Active | Not Active | Not Active | Not Active | Not Active | Not Active | Not Active |  |
| CN(C)[C@@H]1C(O)=C(C(N)=O)C(=O)[C@@]2(O)C(O)=C3C(=O)c4c(O)cccc4[C@@](C)(O)[C@H]3[C@H](O)[C@@H]12 [OXYTETRACYCLINE] | Not Active | Not Active | Not Active | Not Active | Not Active | Not Active | Not Active | Not Active | Not Active | Not Active | Not Active |  |
| CN(C)CCCC1(c2ccc(F)cc2)OCc2cc(C#N)ccc21 (stereo not drawn) [CITALOPRAM] | Not Active | Not Active | Not Active | Not Active | Not Active | Not Active | Not Active | Not Active | Not Active | Not Active | Not Active |  |
| CCCSc1ccc2nc(NC(=O)OC)[nH]c2c1 [ALBENDAZOLE] | Not Active | Not Active | Not Active | Not Active | Not Active | Not Active | Not Active | Not Active | Not Active | Not Active | Not Active |  |
| Oc1cccc2cccnc12 [OXYQUINOLINE] | Not Active | Not Active | Not Active | Not Active | Not Active | Not Active | Not Active | Not Active | Not Active | Not Active | Not Active |  |
| NCC(=O)O [GLYCINE] | Not Active | Not Active | Not Active | Not Active | Not Active | Not Active | Not Active | Not Active | Not Active |  |  |  |
| CNCCC=C1c2ccccc2CCc2ccccc21 [NORTRIPTYLINE] | Not Active | Not Active | Not Active | Not Active | Not Active | Not Active | Not Active | Not Active | Not Active |  |  |  |
| CCCCOC(=O)c1ccc(N)cc1 [BUTAMBEN] | Not Active | Not Active | Not Active | Not Active | Not Active | Not Active | Not Active | Not Active | Not Active |  |  |  |
| Nc1nc(=O)[nH]cc1F [FLUCYTOSINE] | Not Active | Not Active | Not Active | Not Active | Not Active | Not Active | Not Active | Not Active | Not Active |  |  |  |
| O=C(O)c1cn(C2CC2)c2cc(N3CCNCC3)c(F)cc2c1=O [CIPROFLOXACIN] | Not Active | Not Active | Not Active | Not Active | Not Active | Not Active | Not Active | Not Active | Not Active |  |  |  |
| O=C1OC2(c3ccc(O)cc3Oc3cc(O)ccc32)c2ccccc21 [FLUORESCEIN] | Not Active | Not Active | Not Active | Not Active | Not Active | Not Active | Not Active | Not Active | Not Active |  |  |  |
| O=C1OCCN1/N=C/c1ccc([N+](=O)[O-])o1 [FURAZOLIDONE] | Not Active | Not Active | Not Active | Not Active | Not Active | Not Active | Not Active | Not Active | Not Active |  |  |  |
| CC(=O)O[C@]1(C(C)=O)CC[C@H]2[C@@H]3C=C(Cl)C4=CC(=O)CC[C@]4(C)[C@H]3CC[C@@]21C [CHLORMADINONE ACETATE] | Not Active |  |  | Not Active | Not Active | Not Active | Not Active | Not Active | Not Active |  |  | 4.57 |
